The results in this text go back to PMC11339798, “Dual inhibitors of Pseudomonas aeruginosa virulence factors LecA and LasB” (Chemical Science, 2024).

The target of one experiment is T1, LasB (Pseudomonas aeruginosa, UniProt Q02RJ6).
T1 construct: P. aeruginosa PA14 culture supernatant; made in house; host or cells: native secreted enzyme purified from P. aeruginosa PA14 culture supernatant (not recombinant)
As to the kind of experiment: FRET-based in vitro LasB inhibition (proteolysis) assay. Type of experiment: biochemical, P. aeruginosa PA14. The method, then: The LasB activity of the thiol derivatives 11, 12, 17, 18, 24 and 25 was tested using a functional FRET-based in vitro proteolysis assay (Fig. 4A). […]
(§1) Expression and purification of LasB and LecA
LecA was expressed recombinantly using E. coli pET25-pail, whereas LasB was isolated from P. aeruginosa PA14 culture supernatant as described previously. 1,2 […]
In vitro inhibition assay for LasB
The in vitro inhibition assay was performed as described previously,2 using purified LasB (final concentration 0.3 nM), the fluorogenic substrate 2-aminobenzoyl-Ala-Gly-Leu-Ala-4-nitrobenzylamide (purchased from Peptides International (Louisville, KY, USA) or Vivitide, LLC (Gardner, MA, USA), final concentration 150 µM)) in assay buffer (50 mM Tris, pH 7.2, 2.5 mM CaCl2, 0.075% Pluronic F-127, 5% DMSO). Fluorescence was measured using a CLARIOstar plate reader (BMG Labtech, Ortenberg, Germany). IC50 values were calculated using GraphPad Prism 8 (GraphPad Software, San Diego, CA, USA) from at least three independent experiments performed in duplicate.

Another experiment addresses T2, LecA (Pseudomonas aeruginosa, UniProt Q05097).
T2 construct: made in house; host or cells: E. coli (plasmid pET25-pail)
As to the kind of experiment: Competitive binding assay for LecA based on fluorescence polarization. On the set-up: species or system P. aeruginosa. The method, then:
The four thiols 17, 18, 24 and 25 as well as three disulfides 26a, 26b and 27 were then evaluated for their activity against LecA using a competitive binding assay based on fluorescence polarization (Fig. 4B). […]
as §1
LecA was expressed recombinantly using E. coli pET25-pail, whereas LasB was isolated from P. aeruginosa PA14 culture supernatant as described previously. 1,2
LecA labeling with fluorescein was performed in analogy to Sommer et al. 3 and Beshr et al.4 To this end fluorescein isothiocyanate (FITC) was freshly dissolved in carbonate-bicarbonate buffer with pH of 9.3 at a concentration of 3 mg mL-1. Subsequently, 66 µL of this FITC solution was combined with 1.4 mL of LecA at a concentration of 60 µM in carbonate-bicarbonate buffer, pH 9.3. The resulting mixture was then incubated at 25 °C with shaking at 500 rpm for 1 hour. Then, extensive washing with PBS/Ca2+ in a 5 kDa molecular weight cutoff centrifugal concentrator was performed to remove excess dye and buffer the labelled protein. […]
Competitive binding assay for LecA
The procedure for the fluorescence polarization-based competitive binding assay for LecA was performed as reported by Joachim et al. with modifications. 1 The assay was performed in TBS/Ca2+ buffer (20 mM Tris, 137 mM NaCl, 2.6 mM KCl at pH 7.4 supplemented with 1 mM CaCl 2 and contained 5% DMSO). The final protein concentration in the assay was 5 µM for LecA. Fluorescence intensities were recorded on a PheraStar FS plate reader (BMG Labtech GmbH, Germany) and polarization was calculated using MARS Data Analysis (BMG Labtech).
IC50 values were obtained from a four-parameter curve-fitting procedure. Averages and standard deviations were calculated from at least three independent experiments of technical

The structures appear in SMILES notation.

T1 sequence (Q02RJ6 198-498): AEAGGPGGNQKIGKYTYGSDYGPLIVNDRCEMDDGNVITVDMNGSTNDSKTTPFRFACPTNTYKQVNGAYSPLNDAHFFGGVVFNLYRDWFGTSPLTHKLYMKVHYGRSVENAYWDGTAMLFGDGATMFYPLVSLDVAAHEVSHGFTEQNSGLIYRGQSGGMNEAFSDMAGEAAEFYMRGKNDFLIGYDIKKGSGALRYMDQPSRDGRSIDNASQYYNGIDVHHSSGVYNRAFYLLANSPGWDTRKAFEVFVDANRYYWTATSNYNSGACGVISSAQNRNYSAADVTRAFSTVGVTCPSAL
T2 sequence (Q05097 whole entry): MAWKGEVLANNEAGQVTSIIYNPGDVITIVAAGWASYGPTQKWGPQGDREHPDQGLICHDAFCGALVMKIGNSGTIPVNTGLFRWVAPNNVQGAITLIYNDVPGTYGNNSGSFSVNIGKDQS

Regarding `O=C(Nc1ccc(S[C@@H]2O[C@H](CO)[C@H](O)[C@H](O)[C@H]2O)cc1)C(S)Cc1ccccc1` (stereo partly shown) [Compound 11], the results for the half-inhibitory concentration (IC50) against LasB and at LecA were 0.3 µM and 18.1 µM, respectively.

In the case of `CC(C)CC(S)C(=O)Nc1ccc(S[C@@H]2O[C@H](CO)[C@H](O)[C@H](O)[C@H]2O)cc1` (stereo partly shown) [Compound 12], the IC50 against LasB turned out to be 0.8 µM; on LecA, 19.8 µM.
